For orientation: pIC50 means −log10 of the IC50, conventionally taken in molar units. For orientation: CC50 means the concentration that lowers cell viability or growth by half.

Data on 47 compounds can be found in ChEMBL document CHEMBL5523670, “Structure activity relationship and target prediction for ABX464 analogues in Caenorhabditis elegans” (Bioorg Med Chem, 2024).

Series [1] concerns Caenorhabditis elegans. The experiment in a line: Anthelmintic activity against Caenorhabditis elegans N2 Bristol assessed as reduction in motility of young adults measured for 40 hrs. The series is classed as functional, organism-based. The settings on record: for pIC50: Caenorhabditis elegans, N2 Bristol, 40 h.
The nature of series [2]: Cytotoxicity against human HepG2 cells measured for 48 hrs by crystal violet staining based analysis. The series is classed as toxicity, cell-based.
Series [3] can be described thus: Mitotoxicity against human HepG2 cells assessed as reduction in cell viability measured for 48 hrs by crystal violet staining based analysis. The format is toxicity.
Series [4] concerns Caenorhabditis elegans. The experiment in a line: Anthelmintic activity against Caenorhabditis elegans N2 Bristol assessed as maximum inhibition of motility measured for 40 hrs. The series is classed as functional.

pIC50: −log10 of the molar value.

Consider `Fc1ccccc1Nc1ccc2cccc(Cl)c2n1`, for which, in the series with Caenorhabditis elegans [1], the pIC50 was less than 4.40.
On the same count and under the same terms, the same measure for `FC(F)(F)Oc1cccc(Nc2ccc3cccc(Cl)c3n2)c1`: less than 4.40; for `FC(F)(F)Oc1ccc(Nc2ccccn2)cc1`: less than 4.40.
With `N#Cc1cccc(Nc2ccc3cccc(Cl)c3n2)c1`, the negative-log IC50 (pIC50) in the series on Caenorhabditis elegans [1] is less than 4.40.
Still for that read-out and setting: the same measure for `COc1ccc(Nc2ccc3cccc(Cl)c3n2)cc1`: less than 4.40.
On to `Clc1cccc(Nc2ccc3cccc(Cl)c3n2)c1`, for which the pIC50 in the series on Caenorhabditis elegans [1] was 4.96. Further, the CC50 at 48 h in series [2] and in series [3] was not below 40 µM throughout.
As for `FC(F)(F)c1ccc(Nc2ccc3cccc(Cl)c3n2)nc1`, in the series with Caenorhabditis elegans [1], the negative logarithm of the IC50 (pIC50) was less than 4.40.
Same read-out and setting: the figure for `FC(F)(F)Oc1ccc(Nc2ccc3cccc(-c4ccccc4)c3n2)cc1` is less than 4.40.
Turning to `Clc1ccc(Nc2ccc3cccc(Cl)c3n2)cc1`, in the series with Caenorhabditis elegans [1], the pIC50 is 4.85. In the series on Caenorhabditis elegans [4], the Imax came out at 58%.
With `Cc1cccc(Nc2ccc3cccc(Cl)c3n2)c1`, the negative-log IC50 (pIC50) with Caenorhabditis elegans [1] was 4.66.
Same read-out and setting: the figure for `COc1cccc2ccc(Nc3ccc(OC(F)(F)F)cc3)nc12` is less than 4.40; for `FC(F)(F)c1ccc(Nc2ccc3cccc(Cl)c3n2)cc1C(F)(F)F` it is less than 4.40; for `Fc1cccc(Nc2ccc3cccc(Cl)c3n2)c1` it is 4.54.
The same measure, in the same setting: the same measure for `FC(F)(F)c1ccc(Nc2ccc3cccc(Cl)c3n2)cn1`: less than 4.40.
In the case of `FC(F)(F)Oc1ccc(Nc2ccc3cccc(Cl)c3n2)cc1` [OBEFAZIMOD], in the series on Caenorhabditis elegans [1], the pIC50 was 5.14. Besides, in the series with Caenorhabditis elegans [4], the Imax came out at 94%.
Take `Clc1cccc2ccc(Nc3ccccc3-c3ccccc3)nc12`: the pIC50 with Caenorhabditis elegans [1] was less than 4.40.
`N#Cc1cccc2ccc(Nc3ccc(OC(F)(F)F)cc3)nc12`: in the series with Caenorhabditis elegans [1], the pIC50 is less than 4.40.
Still for that read-out and setting: the figure for `N#Cc1ccccc1Nc1ccc2cccc(Cl)c2n1` is less than 4.40.
In the case of `FC(F)(F)c1cc(Nc2ccc3cccc(Cl)c3n2)ccc1Cl`, in the series with Caenorhabditis elegans [1], the pIC50 is 5.15. The Imax with Caenorhabditis elegans [4] is reported as 82%.
Turning to `FC(F)(F)Oc1ccc(Nc2ccc3c(Cl)cccc3n2)cc1`, the pIC50 in the series on Caenorhabditis elegans [1] was 5.15. Besides, the 50% cytotoxic concentration (CC50) at 48 h in series [2] and in series [3] was not below 40 µM in each case.
`FC(F)(F)Oc1ccc(Nc2ccc3cccc(Br)c3n2)cc1`: the pIC50 in the series on Caenorhabditis elegans [1] is 5.23. Further, in the series with Caenorhabditis elegans [4], the Imax was 67%.
Regarding `Clc1cccc2ccc(Nc3ccccc3)nc12`, the pIC50 in the series with Caenorhabditis elegans [1] was 4.96. For the same compound, the Imax in the series on Caenorhabditis elegans [1] (time 40 hrs) stood at 52%.
On to `FC(F)(F)Oc1ccc(Nc2ccc3ccccc3n2)cc1`, for which the negative-log IC50 (pIC50) in the series on Caenorhabditis elegans [1] is less than 4.40.
On to `FC(F)(F)Oc1ccccc1Nc1ccc2cccc(Cl)c2n1`, for which the pIC50 with Caenorhabditis elegans [1] is less than 4.40.
Take `FC(F)(F)c1ccc(Nc2ccc3cccc(Cl)c3n2)cc1`: the CC50 at 48 h in series [2] and in series [3] was not below 40 µM each time.
With `FC(F)(F)c1cccc(Nc2ccc3cccc(Cl)c3n2)c1`, the negative logarithm of the IC50 (pIC50) in the series with Caenorhabditis elegans [1] was 5.49. Besides, in the series on Caenorhabditis elegans [4], the Imax worked out at 55%.
As for `Clc1cccc2ccc(Nc3cccc(-c4ccccc4)c3)nc12`, the pIC50 with Caenorhabditis elegans [1] is less than 4.40.
As to `Oc1ccc(Nc2ccc3cccc(Cl)c3n2)cc1`, the pIC50 with Caenorhabditis elegans [1] was less than 4.40.
The same measure, in the same setting: the figure for `FC(F)(F)c1ccccc1Nc1ccc2cccc(Cl)c2n1` is less than 4.40.
Still for that read-out and setting: the same measure for `FC(F)(F)Oc1ccc(Nc2ccc3cccc(Cl)c3n2)cc1Cl`: less than 4.40.
Consider `Fc1ccc(Nc2ccc3cccc(Cl)c3n2)cc1`, for which the pIC50 in the series on Caenorhabditis elegans [1] was 4.80. For the same compound, the Imax in the series with Caenorhabditis elegans [4] was 57%.
As to `Cc1cccc2ccc(Nc3ccc(OC(F)(F)F)cc3)nc12`, in the series on Caenorhabditis elegans [1], the negative logarithm of the IC50 (pIC50) was less than 4.40.
The same measure, in the same setting: the same measure for `Clc1ccccc1Nc1ccc2cccc(Cl)c2n1`: less than 4.40.
On the same count and under the same terms, the same measure for `COc1cccc(Nc2ccc3cccc(Cl)c3n2)c1`: 4.68.
In the case of `Clc1ccc(Nc2ccc3cccc(Cl)c3n2)cc1Cl`, the negative logarithm of the IC50 (pIC50) with Caenorhabditis elegans [1] is 5.16. The Imax in the series with Caenorhabditis elegans [4] was determined as 100%. Also, the 50% cytotoxic concentration (CC50) at 48 h in series [2] and in series [3] was not below 40 µM each time.
For `Cc1ccc(Nc2ccc3cccc(Cl)c3n2)cc1`, in the series on Caenorhabditis elegans [1], the pIC50 is 4.55. In addition, the Imax in the series with Caenorhabditis elegans [4] is 59%.
Regarding `Clc1cccc2ccc(Nc3ccc(-c4ccccc4)cc3)nc12`, the pIC50 in the series with Caenorhabditis elegans [1] is less than 4.40.
On the same count and under the same terms, the figure for `N#Cc1ccc(Nc2ccc3cccc(Cl)c3n2)cc1` is less than 4.40.
Consider `CN(c1ccc(OC(F)(F)F)cc1)c1ccc2cccc(Cl)c2n1`, for which, in the series on Caenorhabditis elegans [1], the pIC50 is 4.11. The Imax with Caenorhabditis elegans [4] amounted to 81%. Moreover, the CC50 at 48 h in series [2] and in series [3] was not below 40 µM throughout.
As for `FC(F)(F)Oc1ccc(Nc2cc(Cl)c3ccccc3n2)cc1`, in the series on Caenorhabditis elegans [1], the pIC50 was 4.96.
`FC(F)(F)Oc1ccc(Oc2ccc3cccc(Cl)c3n2)cc1`: the pIC50 with Caenorhabditis elegans [1] is less than 4.40.
The same measure, in the same setting: the same measure for `FC(F)(F)Oc1ccc(Nc2ccc3cc(Cl)ccc3n2)cc1`: less than 4.40.
With `COc1ccccc1Nc1ccc2cccc(Cl)c2n1`, in the series on Caenorhabditis elegans [1], the negative-log IC50 (pIC50) was less than 4.40.
In the case of `Fc1cccc2ccc(Nc3ccc(OC(F)(F)F)cc3)nc12`, the negative-log IC50 (pIC50) in the series with Caenorhabditis elegans [1] is 4.74. The Imax in the series with Caenorhabditis elegans [4] stood at 69%.
On to `C[C@](C#N)(COc1cc(C#N)ccc1C(F)(F)F)NC(=O)c1ccc(SC(F)(F)F)cc1` [MONEPANTEL], for which, in the series on Caenorhabditis elegans [1], the pIC50 is 7.52.
Turning to `FC(F)(F)Oc1ccc(Nc2nc3ccccc3cc2Cl)cc1`, the pIC50 with Caenorhabditis elegans [1] is less than 4.40.
Still for that read-out and setting: the same measure for `CO/N=C1\C[C@]2(C[C@@H]3C[C@@H](C/C=C(\C)C[C@@H](C)/C=C/C=C4\CO[C@@H]5[C@H](O)C(C)=C[C@@H](C(=O)O3)[C@]45O)O2)O[C@H](/C(C)=C/C(C)C)[C@H]1C` [MOXIDECTIN]: 7.00.
